Laboratory results reported in patent US6906205B2, “Spiro and dispiro 1,2,4-trioxolane antimalarials” (Medicines for Malaria Venture MMV, priority 2002, dated 2005).
Values after ≈ are worked out from the molar mass of the structure shown.

What was measured:
[1] = test system: ANKA strain of P. berghei; experiment: single dose STI in vivo screen in infected mice; design: species or system Plasmodium berghei; settings: for Activity (%) po / Activity (%) sc / Activity (%) SSVpo / Activity (%) 3 mg/kg SSV po / Activity (%) 10 mg/kg SSV po: percent reduction in parasitemia day 3 post-infection; for Activity (%) po / Survival (days) po: single 10 mg/kg po in 3% ethanol and 7% Tween 80; for Activity (%) po / Activity (%) sc / Activity (%) SSVpo: mice; for Activity (%) sc / Survival (days) sc: single 10 mg/kg sc in 3% ethanol and 7% Tween 80; for Survival (days) po / Survival (days) sc / Survival (days) SSVpo: untreated control 5.6 ± 0.3; for Activity (%) SSVpo: single po dose in standard suspending vehicle (SSV); for Survival (days) SSVpo: single po dose in SSV; for Activity (%) 3 mg/kg SSV po / Survival (days) 3 mg/kg SSV po: single 3 mg/kg po in SSV; for Activity (%) 10 mg/kg SSV po / Survival (days) 10 mg/kg SSV po: single 10 mg/kg po in SSV
Description: In the single dose STI in vivo screen, Moro SPF or NMRI mice infected with the ANKA strain of P. berghei (groups of 3-5 mice) were treated on day one post-infection with trioxolanes dissolved or suspended in 3% ethanol and 7% Tween 80. […] SSV consists of 0.5% w/v CMC, 0.5% v/v benzyl alcohol, 0.4% v/v Tween 80, and 0.9% w/v sodium chloride in water. Antimalarial activity was measured by percent reduction in parasitemia on day three post-infection and survival times compared to an untreated control group. Survival to day 30 post-infection is considered to be a cure. […] Other factors influencing antimalarial activity include the stability of carbon radicals formed by β-scission subsequent to the initial electron transfer to the peroxide bond and the influence of steric effects remote from the peroxide bond on the interactions between carbon radicals and potential drug targets.

[2] = test system: P. falciparum K1 strain (Thailand resistant to chloroquine); experiment: semiautomated microdilution assay, [3H]-hypoxanthine incorporation, K1 strain; type: cell-based, Plasmodium falciparum; settings: K1 strain, 72 h incubation
Description: (§1) Various OZ compounds were tested by the semiautomated microdilution assay against intraerythrocytic forms of Plasmodium falciparum derived from asynchronous stock cultures.
(§2) Fifty percent inhibitory concentration (IC50) were estimated by Logit regression analysis.

[3] = test system: P. falciparum NF54 strain (sensitive to standard antimalarials); experiment: semiautomated microdilution assay, [3H]-hypoxanthine incorporation, NF54 strain; type: cell-based, Plasmodium falciparum; settings: NF54 strain, 72 h incubation
Description: as §1, §2

SMILES	IC50 (ng/ml) K1 [2]	IC50 (ng/ml) NF54 [3]	Activity (%) 3 mg/kg SSV po [1] [%]	Activity (%) 10 mg/kg SSV po [1]	Survival (days) 10 mg/kg SSV po [1]	also measured
C1CCC2(CC1)OOC1(CCCCC1)O2 [OZ01]	>100/>100 ng/ml	>100/>100 ng/ml	–	–	–	Activity (%) po [1]: 0/NA/0^1%; Activity (%) sc [1]: 0/NA/0^1%; Survival (days) po [1]: 5.3/NA/5.3^1 days; Survival (days) sc [1]: 5.3/NA/5.3^1 days
O=C1CCC2(CC1)OOC1(CCCCC1)O2 [OZ02]	> 100 ng/mL	94 ng/mL (≈ 415 nM)	–	–	–	Activity (%) po [1]: 0/NA/0^1%; Activity (%) sc [1]: 0/NA/0^1%; Survival (days) po [1]: 5.0/NA/5.0^1 days; Survival (days) sc [1]: 5.0/NA/5.0^1 days
FC1CCCCC12OOC1(CCCCC1)O2 (centres unmarked) [OZ06]	18 ng/mL (≈ 78.2 nM)	22 ng/mL (≈ 95.5 nM)	–	–	–	Survival (days) po [1]: 1.0/NA/1.0^1 days; Survival (days) sc [1]: 1.0/NA/1.0^1 days
CCOC(=O)CCC1CCCCC12OOC1(CCCCC1)O2 (centres unmarked) [OZ07]	66 ng/mL (≈ 211 nM)	49 ng/mL (≈ 157 nM)	–	–	–	Activity (%) po [1]: 0/NA/0^1%; Activity (%) sc [1]: 0/NA/0^1%; Survival (days) po [1]: 6.0 days; Survival (days) sc [1]: 5.7 days
C1CCC2(CC1)OOC1(CCC3(CC1)OOC1(CCCCC1)O3)O2 (centres unmarked) [OZ09]	32 ng/mL (≈ 94 nM)	39 ng/mL (≈ 115 nM)	–	–	–	Activity (%) po [1]: 0%; Activity (%) sc [1]: 81%; Survival (days) po [1]: 5.0 days; Survival (days) sc [1]: 6.3 days
O=C(Cn1ccnc1)N1CCC2(CC1)OOC1(O2)C2CC3CC(C2)CC1C3 (centres unmarked) [OZ103]	–	0.17 ng/mL (≈ 0.455 nM)	–	–	–	Activity (%) po [1]: 86%; Activity (%) sc [1]: 87%; Activity (%) SSVpo [1]: 63%; Survival (days) po [1]: 7.3 days; Survival (days) sc [1]: 7.3 days; Survival (days) SSVpo [1]: 6.7 days
CN(C)C(=O)N1CCC2(CC1)OOC1(O2)C2CC3CC(C2)CC1C3 (centres unmarked) [OZ133]	0.70 ng/mL (≈ 2.08 nM)	–	–	–	–	Activity (%) po [1]: 94%; Activity (%) sc [1]: 72%; Activity (%) SSVpo [1]: 97%; Survival (days) po [1]: 7.0 days; Survival (days) sc [1]: 7.0 days; Survival (days) SSVpo [1]: 7.3 days
C1CCC(NC2CCC3(CC2)OOC2(O3)C3CC4CC(C3)CC2C4)CC1 (centres unmarked) [OZ162]	0.50 ng/mL (≈ 1.38 nM)	0.71 ng/mL (≈ 1.96 nM)	–	–	–	–
CCOC(=O)c1ccc([C@H]2CC[C@]3(CC2)OOC2(O3)C3CC4CC(C3)CC2C4)cc1 (some centres unmarked) [OZ164]	–	–	–	–	–	Activity (%) po [1]: 11%; Activity (%) sc [1]: 7%; Activity (%) SSVpo [1]: 0%; Survival (days) SSVpo [1]: 5.7 days; IC50 ([2]; Plasmodium falciparum, read-out: IC50 (ng/ml) K1): 59 ng/mL (≈ 143 nM)
CC(C)N(C(=O)N1CCC2(CC1)OOC1(O2)C2CC3CC(C2)CC1C3)C(C)C (centres unmarked) [OZ194]	–	6.6 ng/mL (≈ 16.8 nM)	–	–	–	Activity (%) po [1]: 87%; Activity (%) sc [1]: 99.95%; Activity (%) SSVpo [1]: 73%; Survival (days) po [1]: 8.3 days; Survival (days) sc [1]: 20.3 days; Survival (days) SSVpo [1]: 8.0 days
CC(C)(C)CC(=O)N[C@H]1CC[C@]2(CC1)OOC1(O2)C2CC3CC(C2)CC1C3 (some centres unmarked) [OZ195]	2.2 ng/mL (≈ 5.83 nM)	3.7 ng/mL (≈ 9.8 nM)	–	–	–	–
O=C1CCC(=O)N1C[C@H]1CC[C@]2(CC1)OOC1(O2)C2CC3CC(C2)CC1C3 (some centres unmarked) [OZ197]	1.0 ng/mL (≈ 2.66 nM)	2.0 ng/mL (≈ 5.33 nM)	–	–	–	–
NC(=O)N1CCC2(CC1)OOC1(O2)C2CC3CC(C2)CC1C3 (centres unmarked) [OZ199]	0.69 ng/mL (≈ 2.24 nM)	–	–	–	–	–
NCC[C@H]1CC[C@]2(CC1)OOC1(O2)C2CC3CC(C2)CC1C3 (some centres unmarked) [OZ229]	0.24 ng/mL (≈ 0.781 nM)	0.23 ng/mL (≈ 0.748 nM)	–	–	–	–
O=C(NC[C@H]1CC[C@]2(CC1)OO[C@]1(O2)C2CC3CC(C2)CC1C3)c1cccnc1 [OZ273]	0.97 ng/mL (≈ 2.43 nM)	–	64	–	–	–
OC1(Cc2nc3ccccc3s2)CCC2(CC1)OOC1(O2)C2CC3CC(C2)CC1C3 (centres unmarked) [OZ276]	–	0.94 ng/mL (≈ 2.2 nM)	–	17/ND %	7.3/ND days	–
NC(=O)c1ccc(NC[C@H]2CC[C@]3(CC2)OOC2(O3)C3CC4CC(C3)CC2C4)cc1 (some centres unmarked) [OZ286]	0.94 ng/mL (≈ 2.28 nM)	–	60	–	8.7 days	–
CCOC(=O)NC[C@H]1CC[C@]2(CC1)OO[C@]1(O2)C2CC3CC(C2)CC1C3 [OZ289]	–	0.56 ng/mL (≈ 1.53 nM)	92	–	–	–

SMILES	IC50 (ng/ml) K1 [2]	IC50 (ng/ml) NF54 [3]	Activity (%) 3 mg/kg SSV po [1] [%]	Activity (%) 10 mg/kg SSV po [1]	Survival (days) 10 mg/kg SSV po [1]	also measured
CCOC(=O)CNC[C@H]1CC[C@]2(CC1)OO[C@]1(O2)C2CC3CC(C2)CC1C3 [OZ290]	0.42 ng/mL (≈ 1.11 nM)	–	95	–	9.0 days	–
O=c1ccn(C[C@H]2CC[C@]3(CC2)OO[C@]2(O3)C3CC4CC(C3)CC2C4)cc1 [OZ302]	–	2.9 ng/mL (≈ 7.81 nM)	88	99.60%	–	–
NCCNC(=O)C[C@H]1CC[C@]2(CC1)OO[C@]1(O2)C2CC3CC(C2)CC1C3 [OZ305]	1.8 ng/mL (≈ 4.94 nM)	–	96	99.93%	9.2 days	–
NC(=O)c1cn(C[C@H]2CC[C@]3(CC2)OO[C@]2(O3)C3CC4CC(C3)CC2C4)cn1 [OZ320]	0.68 ng/mL (≈ 1.75 nM)	–	92	99.76%	10.4 days	Survival (days) 3 mg/kg SSV po [1]: 11.8 days
O=CNCC(=O)NC[C@H]1CC[C@]2(CC1)OO[C@]1(O2)C2CC3CC(C2)CC1C3 [OZ322]	0.90 ng/mL (≈ 2.38 nM)	–	61	98%	10.0 days	–
c1cnc(OC[C@H]2CC[C@]3(CC2)OO[C@]2(O3)C3CC4CC(C3)CC2C4)nc1 [OZ325]	0.62 ng/mL (≈ 1.66 nM)	–	30	99.43%	8.8 days	–
c1cnc(NC[C@H]2CC[C@]3(CC2)OO[C@]2(O3)C3CC4CC(C3)CC2C4)nc1 [OZ326]	0.65 ng/mL (≈ 1.75 nM)	–	7	80%	7.4 days	–
NC(=O)[C@@H]1CCCN1C[C@H]1CC[C@]2(CC1)OO[C@]1(O2)C2CC3CC(C2)CC1C3 [OZ327]	0.85 ng/mL (≈ 2.18 nM)	–	72	97%	9.8 days	–
Nc1nccnc1C(=O)NC[C@H]1CC[C@]2(CC1)OO[C@]1(O2)C2CC3CC(C2)CC1C3 [OZ330]	0.55 ng/mL (≈ 1.33 nM)	–	82	99.96%	–	–
C[C@H](N)C(=O)NC[C@H]1CC[C@]2(CC1)OO[C@]1(O2)C2CC3CC(C2)CC1C3 [OZ335]	–	0.28 ng/mL (≈ 0.768 nM)	97	99.95%	9.2 days	–
CS(=O)(=O)N1CCN(C(=O)C[C@H]2CC[C@]3(CC2)OO[C@]2(O3)C3CC4CC(C3)CC2C4)CC1 [OZ344]	–	–	0	17%	7.8 days	Survival (days) 3 mg/kg SSV po [1]: 7.4 days
CS(=O)(=O)C1CCN(C(=O)C[C@H]2CC[C@]3(CC2)OO[C@]2(O3)C3CC4CC(C3)CC2C4)CC1 [OZ345]	–	–	0	75%	9.2 days	Survival (days) 3 mg/kg SSV po [1]: 6.6 days
CS(=O)(=O)CC(=O)NC[C@H]1CC[C@]2(CC1)OO[C@]1(O2)C2CC3CC(C2)CC1C3 [OZ350]	–	–	69	99.17%	10.4 days	Survival (days) 3 mg/kg SSV po [1]: 9.6 days
c1c[nH]c(C[C@H]2CC[C@]3(CC2)OO[C@]2(O3)C3CC4CC(C3)CC2C4)n1 [OZ355]	–	–	0	71%	7.0 days	Survival (days) 3 mg/kg SSV po [1]: 6.2 days
O=C(NC[C@H]1CC[C@]2(CC1)OO[C@]1(O2)C2CC3CC(C2)CC1C3)c1cnccn1 [OZ356]	–	–	87	99.64%	8.6 days	Survival (days) 3 mg/kg SSV po [1]: 8.0 days
N[C@H]1CC[C@]2(CC1)OO[C@]1(O2)C2CC3CC(C2)CC1C3 [OZ362]	–	–	58	98%	9.8 days	Survival (days) 3 mg/kg SSV po [1]: 7.0 days
O=C([C@H]1CC[C@@]2(CC1)OO[C@@]1(O2)C2CC3CC(C2)CC1C3)N1CCNCC1 [OZ365]	0.79 ng/mL (≈ 2.1 nM)	–	92	99.57%	8.0/8.0 days	Survival (days) 3 mg/kg SSV po [1]: 8.0/8.0 days
